“And” between values parts separate entries of the source, which are not always exact repeats. Identical values can stand only once.
Experiment: mn = molality of the nth substance listed, in mol/kg
Conditions: 101 kPa, Liquid; for electrical conductivity: Alternating current cell with electrodes; for mass density: Pycnometric method

C[C@H](N)C(=O)N[C@@H](CCC(N)=O)C(=O)O [L-alanyl-L-glutamine] + O
electrical conductivity [S/m]
Conditions | 293.15 K | 298.15 K | 303.15 K | 308.15 K | 313.15 K
m1 = 0.05 | 0.0034 | 0.00364 | 0.00391 | 0.00427 | 0.00463
m1 = 0.1 | 0.00555 | 0.00599 | 0.00648 | 0.00707 | 0.00792
m1 = 0.15 | 0.00766 | 0.0084 | 0.009 | 0.00985 | 0.0112
m1 = 0.2 | 0.0107 | 0.0115 | 0.0124 | 0.0138 | 0.0153

CC(C)C[C@H](NC(=O)CN)C(=O)O [glycyl-L-leucine] + O
electrical conductivity
Conditions | 293.15 K | 298.15 K | 303.15 K | 308.15 K | 313.15 K
m1 = 0.05 | 0.00321 S/m | 0.00345 S/m | 0.00373 S/m and 0.00372 S/m | 0.00406 S/m | 0.00455 S/m
m1 = 0.1 | 0.00533 S/m | 0.0058 S/m | 0.00634 S/m | 0.00703 S/m | 0.00781 S/m
m1 = 0.15 | 0.0074 S/m | 0.00809 S/m | 0.00889 S/m | 0.00987 S/m | 0.011 S/m
m1 = 0.2 | 0.0104 S/m | 0.0113 S/m | 0.0124 S/m | 0.0137 S/m | 0.0152 S/m

CC(C)[C@H](NC(=O)CN)C(=O)O [glycyl-L-valine] + O
electrical conductivity [S/m]
Conditions | 293.15 K | 298.15 K | 303.15 K | 308.15 K | 313.15 K
m1 = 0.05 | 0.00323 | 0.00347 | 0.00374 | 0.00407 | 0.00456
m1 = 0.1 | 0.00535 | 0.00582 | 0.00636 | 0.00705 | 0.00783
m1 = 0.15 | 0.00742 | 0.00811 | 0.00891 | 0.00989 | 0.011
m1 = 0.2 | 0.0104 | 0.0114 | 0.0124 | 0.0137 | 0.0152

NCC(=O)N[C@@H](CCC(N)=O)C(=O)O [glycyl-l-glutamine] + O
electrical conductivity
Conditions | 293.15 K | 298.15 K | 303.15 K | 308.15 K | 313.15 K
m1 = 0.05 | 0.00342 S/m | 0.00366 S/m | 0.00392 S/m | 0.00428 S/m | 0.00464 S/m
m1 = 0.1 | 0.00556 S/m | 0.006 S/m | 0.00649 S/m | 0.00708 S/m | 0.00793 S/m and 0.00773 S/m
m1 = 0.15 | 0.00768 S/m | 0.00832 S/m | 0.00902 S/m | 0.00999 S/m | 0.0108 S/m and 0.0112 S/m
m1 = 0.2 | 0.0107 S/m | 0.0116 S/m | 0.0125 S/m | 0.0139 S/m | 0.0148 S/m and 0.0158 S/m

NCC(=O)NCC(=O)O [glycylglycine] + O
electrical conductivity [S/m]
Conditions | 293.15 K | 298.15 K | 303.15 K | 308.15 K | 313.15 K
m1 = 0.05 | 0.00328 | 0.00355 | 0.00385 | 0.00429 | 0.00474
m1 = 0.1 | 0.00543 | 0.00593 | 0.00652 | 0.00724 | 0.00805
m1 = 0.15 | 0.00745 | 0.00818 | 0.00904 | 0.0101 | 0.0113
m1 = 0.2 | 0.0106 | 0.0115 | 0.0125 | 0.014 | 0.0155

O=S(=O)([O-])C(F)(F)C(F)(F)C(F)(F)C(F)(F)F.[K+] [potassium perfluorobutanesulfonate] + O
Conditions | electrical conductivity, 293.15 K [S/m] | electrical conductivity, 298.15 K [S/m] | electrical conductivity, 303.15 K [S/m] | electrical conductivity, 308.15 K [S/m] | electrical conductivity, 313.15 K [S/m] | mass density, 288.15 K [kg/m3] | mass density, 293.15 K [kg/m3] | mass density, 298.15 K [kg/m3] | mass density, 303.15 K
m1 = 0.0003 | 0.00278 | 0.00312 | 0.00344 | 0.00378 | 0.00413 | – | – | – | –
m1 = 0.00054 | 0.00499 | 0.00562 | 0.00619 | 0.00681 | 0.00742 | – | – | – | –
m1 = 0.00087 | 0.00784 | 0.00882 | 0.00972 | 0.0107 | 0.0117 | – | – | – | –
m1 = 0.00125 | 0.0111 | 0.0125 | 0.0138 | 0.0152 | 0.0166 | – | – | – | –
m1 = 0.00164 | 0.0145 | 0.0163 | 0.018 | 0.0197 | – | – | – | – | –
m1 = 0.00207 | 0.0181 | 0.0203 | 0.0226 | 0.0248 | 0.0271 | – | – | – | –
m1 = 0.00259 | 0.0227 | 0.0253 | 0.0279 | 0.0307 | 0.0335 | – | – | – | –
m1 = 0.00315 | 0.0273 | 0.0304 | 0.0336 | 0.0369 | 0.0403 | – | – | – | –
m1 = 0.00374 | 0.0322 | 0.0357 | 0.0395 | 0.0434 | 0.0474 | – | – | – | –
m1 = 0.00437 | 0.0372 | 0.0415 | 0.0457 | 0.0504 | 0.0549 | – | – | – | –
m1 = 0.00501 | 0.0423 | 0.0471 | 0.0521 | 0.0572 | 0.0625 | – | – | – | –
m1 = 0.00571 | 0.0478 | 0.0532 | 0.0588 | 0.0646 | 0.0705 | – | – | – | –
m1 = 0.00646 | 0.0537 | 0.0596 | 0.0658 | 0.0725 | 0.0792 | – | – | – | –
m1 = 0.00723 | 0.0596 | 0.0662 | 0.0732 | 0.0805 | 0.0878 | – | – | – | –
m1 = 0.00809 | 0.0661 | 0.0734 | 0.081 | – | 0.0976 | – | – | – | –
m1 = 0.00904 | 0.0731 | 0.0814 | – | – | – | – | – | – | –
m1 = 0.04 | – | – | – | – | – | 1006.5 | 1005.6 | 1004.3 | 1002.7 kg/m3 and 1002.8 kg/m3

O=S(=O)([O-])C(F)(F)C(F)(F)C(F)(F)C(F)(F)C(F)(F)C(F)(F)C(F)(F)C(F)(F)F.[K+] [potassium perfluorooctanesulfonate] + O
Conditions | electrical conductivity, 293.15 K [S/m] | electrical conductivity, 298.15 K [S/m] | electrical conductivity, 303.15 K [S/m] | electrical conductivity, 308.15 K [S/m] | electrical conductivity, 313.15 K [S/m] | mass density, 288.15 K [kg/m3] | mass density, 293.15 K [kg/m3] | mass density, 298.15 K | mass density, 303.15 K
m1 = 0.0003 | – | 0.00301 | 0.00325 | 0.00359 | 0.00392 | – | – | – | –
m1 = 0.00033 | 0.00284 | 0.00326 | 0.00353 | 0.0039 | 0.00427 | – | – | – | –
m1 = 0.00036 | 0.00306 | 0.00352 | 0.00381 | 0.0042 | 0.0046 | – | – | – | –
m1 = 0.00039 | 0.00326 | 0.00376 | 0.00407 | 0.00449 | 0.00492 | – | – | – | –
m1 = 0.00041 | 0.00347 | 0.00399 | 0.00432 | 0.00478 | 0.00522 | – | – | – | –
m1 = 0.00044 | 0.00366 | 0.00421 | 0.00456 | 0.00504 | 0.0055 | – | – | – | –
m1 = 0.00046 | 0.00384 | 0.00444 | 0.00481 | 0.00531 | 0.0058 | – | – | – | –
m1 = 0.00049 | 0.00404 | 0.00466 | 0.00506 | 0.0056 | 0.0061 | – | – | – | –
m1 = 0.0005 | – | – | – | – | – | 999.3 | 998.3 | 997.1 kg/m3 and 997.2 kg/m3 | 995.7 kg/m3 and 995.8 kg/m3
m1 = 0.00052 | 0.00427 | 0.00492 | 0.00534 | 0.00592 | 0.00644 | – | – | – | –
m1 = 0.00054 | 0.00447 | 0.00516 | 0.00559 | 0.00621 | 0.00673 | – | – | – | –
m1 = 0.00057 | 0.00468 | 0.00541 | 0.00586 | 0.0065 | 0.00706 | – | – | – | –
m1 = 0.0006 | 0.0049 | 0.00564 | 0.00612 | 0.00679 | 0.00737 | – | – | – | –
m1 = 0.00062 | 0.0051 | 0.00589 | 0.00638 | 0.00709 | 0.00769 | – | – | – | –
m1 = 0.00066 | 0.00534 | 0.00616 | 0.00667 | 0.00742 | 0.00805 | – | – | – | –
m1 = 0.00069 | 0.00559 | 0.00643 | 0.00697 | 0.00775 | 0.00843 | – | – | – | –
m1 = 0.00071 | 0.0058 | 0.00669 | 0.00724 | 0.00806 | 0.00875 | – | – | – | –
m1 = 0.00075 | – | 0.00698 | 0.00756 | 0.00841 | 0.00914 | – | – | – | –
m1 = 0.00078 | – | 0.00721 | 0.00782 | 0.00871 | – | – | – | – | –

From the NIST ThermoML archive (doi:10.1016/j.jct.2015.10.004)
